According to US12274732B2, “Anti-pathogen composition and methods of use thereof” (Tenfold Technologies, LLC, priority 2017, dated 2025):
In brackets after ≈: the same amount, converted by molar mass. Read-outs that look alike come from different tables or passages of the source. Positions of bridges follow the written chain, without caps; N, C: chain ends. Non-standard residues stand in square brackets, D forms with d. Residues, ends and D or L forms follow the SMILES beside them. ξ: configuration not given here. *: point of attachment. Pentadecanoyl(3ξ-OH,15-Gua) = N=C(N)NCCCCCCCCCCCCC(O)CC(=O)*; d(aThr) = C[C@@H](O)[C@@H](N)C(=O)O; Thr(3ξ) = CC(O)[C@H](N)C(=O)O

Legend:
Format in all cases: cell-based
Cryptococcus neoformans = test: In vitro antimicrobial activity against Cryptococcus neoformans; conditions: for C. neoformans IC50: Table 5, extracts tested at 8-200 μg/mL
Experimental: (§1) Fifty organic extracts were prepared from 25 whole broth of four microbial strains (MS1479, MS2379, MS2820, and MS2414), which were fermented in different media for the antimicrobial testing. Note each whole broth culture generated one n-butanol extract from cultural supernatant and one methanol extract from cell pellets.
(§2) The antimicrobial activities of the 50 organic extracts were studied against three fungal pathogens—Candida albicans, Aspergillus fumigatus, and Cryptococcus neoformans—and five bacterial strains-Methicillin-resistant Staphylococcus aureus (MIRSA), Escherichia coli, Pseudomonas aeruginosa, Klebsiella pneumoniae, and Vancomycin-resistant Enterococcus faecium (VRE) (FIG. 2). The test concentrations for all extracts were in the range of 8-200 μg/mL (Table 3).
The potent activities against the fungal pathogen C. neoformans and the gram-positive bacteria S. aureus, MRSA, and M. intracellulare were also shown in the crude extracts (FIG. 7).
(§3) The antimicrobial activities of identified fusaricidins were in an in vitro study against several clinically relevant microbes. […] For the in-vitro assays against bacteria, fusaricidins were tested against methicillin-resistant Staphylococcus aureus, vancomycin-resistant Enterococcus faecium, Escherichia coli, and Pseudomonas aeruginosa using four antibacterial drugs methicillin, vancomycin, cefotaxime, and meropenem as controls. […] Fusaricidins were also tested against fungal pathogens Cryptococcus neoformans, Candida albicans, and Aspergillus fumigatus and compared with two antifungal drugs, fluconazole and amphotericin B (Table 13). Moreover, the anti-parasitic activity was also tested against L. donovani and T. brucei (Table 14).

Klebsiella pneumoniae = test: In vitro antimicrobial activity against Klebsiella pneumoniae; conditions: Klebsiella pneumoniae; test conc. 200-8 μg/mL (extracts), 100-4 or 10-0.4 μg/mL (drugs); read-out: K pneumoniae IC50
Experimental: as §1, §2

Aspergillus fumigatus = test: In vitro antimicrobial activity against Aspergillus fumigatus; conditions: for A. fumigatus IC50: Table 5, extracts tested at 8-200 μg/mL
Experimental: as §1, §2, §3

[1] = test system: Methicillin-resistant Staphylococcus aureus (MRSA); test: In vitro antimicrobial activity against MRSA; conditions: for MRS IC50: Table 5, extracts tested at 8-200 μg/mL
Experimental: as §1, §2, §3

Candida albicans = test: In vitro antimicrobial activity against Candida albicans; conditions: for IC50: Candida albicans; for C. albicans IC50: Table 5, extracts tested at 8-200 μg/mL; for C. albicans MIC (minimum inhibitory concentration): lowest concentration that allows no detectable growth
Experimental: as §1, §2, §3

[2] = test system: Vancomycin-resistant Enterococcus faecium (VRE); test: In vitro antimicrobial activity against VRE; conditions: for VRE IC50: Table 5, extracts tested at 8-200 μg/mL
Experimental: as §1, §2, §3

Pseudomonas aeruginosa = test: In vitro antimicrobial activity against Pseudomonas aeruginosa
Experimental: as §1, §2, §3

Escherichia coli = test: In vitro antimicrobial activity against Escherichia coli
Experimental: as §1, §2, §3

[3] = Cryptococcus neoformans, test conc. 200-8 μg/mL (extracts), 100-4 or 10-0.4 μg/mL (drugs), read-out: C. neoformans IC50
[4] = Aspergillus fumigatus, test conc. 200-8 μg/mL (extracts), 100-4 or 10-0.4 μg/mL (drugs), read-out: A. fumigatus IC50
[5] = Staphylococcus aureus, MRSA, test conc. 200-8 μg/mL (extracts), 100-4 or 10-0.4 μg/mL (drugs), read-out: MRS IC50
[6] = test conc. 200-8 μg/mL (extracts), 100-4 or 10-0.4 μg/mL (drugs), read-out: C. albicans IC50
[7] = test conc. 200-8 μg/mL (extracts), 100-4 or 10-0.4 μg/mL (drugs), read-out: VRE IC50
[8] = Pseudomonas aeruginosa, test conc. 200-8 μg/mL (extracts), 100-4 or 10-0.4 μg/mL (drugs), read-out: P. aeruginosa IC50
[9] = Escherichia coli, test conc. 200-8 μg/mL (extracts), 100-4 or 10-0.4 μg/mL (drugs), read-out: E. coli IC50
[10] = Table 12, highest test conc. fusaricidins 20, controls 100 μg/mL
[11] = Table 12, lowest concentration that allows no detectable growth
[12] = Table 13, Methicillin-resistant Staphylococcus aureus ATCC 1708
[13] = Table 13, Vancomycin-resistant Enterococcus faecium ATCC 700221
[14] = Table 13, Pseudomonas aeruginosa ATCC 2108
[15] = Table 13, Escherichia coli ATCC 2452

Molecule | IC50 (Cryptococcus neoformans; [3]) | IC50 (Klebsiella pneumoniae) | IC50 [1, 5] | VRE IC50 [2] | IC50 [2, 7] | IC50 (Pseudomonas aeruginosa; [8]) | IC50 (Escherichia coli; [9]) | C. neoformans IC50 (50% growth inhibitory concentration) (Cryptococcus neoformans; [10]) | C. neoformans MIC (minimum inhibitory concentration) (Cryptococcus neoformans; [11]) | A. fumigatus IC50 (50% growth inhibitory concentration) (Aspergillus fumigatus; [10]) | A. fumigatus MIC (minimum inhibitory concentration) (Aspergillus fumigatus; [11]) | MRSA IC50 (50% growth inhibitory concentration) [1, 12] | MRSA MIC (minimum inhibitory concentration) [1, 12] | C. albicans IC50 (50% growth inhibitory concentration) (Candida albicans; [10]) | C. albicans MIC (minimum inhibitory concentration) (Candida albicans; Table 12) | VRE IC50 (50% growth inhibitory concentration) [2, 13] | VRE MIC (minimum inhibitory concentration) [2, 13] | P. aeruginosa IC50 (50% growth inhibitory concentration) (Pseudomonas aeruginosa; [14]) | P. aeruginosa MIC (minimum inhibitory concentration) (Pseudomonas aeruginosa; [14]) | E. coli IC50 (50% growth inhibitory concentration) (Escherichia coli; [15]) | also measured
CO/N=C(\C(=O)N[C@@H]1C(=O)N2C(C(=O)O)=C(COC(C)=O)CS[C@H]12)c1csc(N)n1 [Cefotaxime] | > 100 µg/mL | > 100 µg/mL | 14.8 µg/mL (≈ 32.5 µM) | >100 µg/mL | > 100 µg/mL | 11.8 µg/mL (≈ 26 µM) | 80.2 µg/mL (≈ 176 µM) |  |  |  |  |  |  |  |  |  |  |  |  |  | C. neoformans IC50 (Cryptococcus neoformans): >100 µg/mL; IC50 (Aspergillus fumigatus; [4]): > 100 µg/mL; A. fumigatus IC50 (Aspergillus fumigatus): >100 µg/mL; IC50 ([1]; ATCC 1708 / MRSA, Table 13, Methicillin-resistant Staphylococcus aureus ATCC 1708, read-out: MRSA IC50 (50% growth inhibitory concentration)): 15.6 µg/mL (≈ 34.3 µM); MIC ([1]; ATCC 1708 / MRSA, Table 13, Methicillin-resistant Staphylococcus aureus ATCC 1708, read-out: MRSA MIC (minimum inhibitory concentration)): 25 µg/mL (≈ 54.9 µM); IC50 (Candida albicans; [6]): > 100 µg/mL; C. albicans IC50 (Candida albicans): >100 µg/mL; IC50 ([2]; ATCC 700221 / VRE, Table 13, Vancomycin-resistant Enterococcus faecium ATCC 700221, read-out: VRE IC50 (50% growth inhibitory concentration)): > 100 µg/mL; MIC ([2]; ATCC 700221 / VRE, Table 13, Vancomycin-resistant Enterococcus faecium ATCC 700221, read-out: VRE MIC (minimum inhibitory concentration)): > 100 µg/mL; IC50 (Pseudomonas aeruginosa; ATCC2108, Table 13, Pseudomonas aeruginosa ATCC 2108, read-out: P. aeruginosa IC50 (50% growth inhibitory concentration)): 5.3 µg/mL (≈ 11.6 µM); MIC (Pseudomonas aeruginosa; ATCC2108, Table 13, Pseudomonas aeruginosa ATCC 2108, read-out: P. aeruginosa MIC (minimum inhibitory concentration)): 25 µg/mL (≈ 54.9 µM); IC50 (Escherichia coli; ATCC2452, Table 13, Escherichia coli ATCC 2452, read-out: E. coli IC50 (50% growth inhibitory concentration)): > 100 µg/mL; MIC (Escherichia coli; ATCC2452, Table 13, Escherichia coli ATCC 2452, read-out: E. coli MIC (minimum inhibitory concentration)): > 100 µg/mL
O=C(O)c1cn(C2CC2)c2cc(N3CCNCC3)c(F)cc2c1=O [Ciprofloxacin] | > 10 µg/mL | > 10 µg/mL | > 10 µg/mL | >10 µg/mL | > 10 µg/mL | 0.81 µg/mL (≈ 2.44 µM) | < 0.01 µg/mL |  |  |  |  |  |  |  |  |  |  |  |  |  | C. neoformans IC50 (Cryptococcus neoformans): >10 µg/mL; MRS IC50 [1]: >10 µg/mL
OC(Cn1cncn1)(Cn1cncn1)c1ccc(F)cc1F [Fluconazol] |  |  |  |  |  |  |  |  |  |  |  |  |  |  |  |  |  |  |  |  | IC50 (Cryptococcus neoformans; Cryptococcus neoformans, Table 12, highest test conc. fusaricidins 20, controls 100 μg/mL, read-out: C. neoformans IC50 (50% growth inhibitory concentration)): 2.5 µg/mL (≈ 8.16 µM); MIC (Cryptococcus neoformans; Cryptococcus neoformans, Table 12, lowest concentration that allows no detectable growth, read-out: C. neoformans MIC (minimum inhibitory concentration)): 6.3 µg/mL (≈ 20.6 µM); IC50 (Aspergillus fumigatus; Aspergillus fumigatus, Table 12, highest test conc. fusaricidins 20, controls 100 μg/mL, read-out: A. fumigatus IC50 (50% growth inhibitory concentration)): > 100 µg/mL; MIC (Aspergillus fumigatus; Aspergillus fumigatus, Table 12, lowest concentration that allows no detectable growth, read-out: A. fumigatus MIC (minimum inhibitory concentration)): > 100 µg/mL; IC50 (Candida albicans; Table 12, highest test conc. fusaricidins 20, controls 100 μg/mL, read-out: C. albicans IC50 (50% growth inhibitory concentration)): 1 µg/mL (≈ 3.27 µM)
OC(Cn1cncn1)(Cn1cncn1)c1ccc(F)cc1F [Fluconazole] | 2.2 µg/mL (≈ 7.18 µM) | > 100 µg/mL | > 100 µg/mL | >100 µg/mL | > 100 µg/mL | > 100 µg/mL | > 100 µg/mL |  |  |  |  |  |  |  |  |  |  |  |  |  | IC50 (Aspergillus fumigatus; [4]): > 100 µg/mL; A. fumigatus IC50 (Aspergillus fumigatus): >100 µg/mL; MRS IC50 [1]: >100 µg/mL; IC50 (Candida albicans; [6]): < 0.1 µg/mL; C. albicans IC50 (Candida albicans): <0.1 µg/mL
CC(C)[C@@H]1NC(=O)[C@@H](C(C)C)NC(=O)[C@@H](NC(=O)CC(O)CCCCCCCCCCCCN=C(N)N)[C@@H](C)OC(=O)[C@@H](C)NC(=O)[C@@H](CC(N)=O)NC(=O)[C@@H]([C@@H](C)O)NC1=O (stereo partly drawn) [Fusaricidin A (RRR-8-32Q)] ({Pentadecanoyl(3ξ-OH,15-Gua)}-T[dV]V[d(aThr)][dN][dA]; ester 1-C) |  |  |  |  |  |  |  | 1.2 µg/mL | 2.5 µg/mL | 18.5 µg/mL | > 20 µg/mL | 2.1 µg/mL | 2.5 µg/mL | 3.5 µg/mL | 5.0 µg/mL | 3.7 µg/mL | 5.0 µg/mL | >20/>20 μg/mL | >20/>20 μg/mL | >20/>20 μg/mL | E. coli MIC (minimum inhibitory concentration) (Escherichia coli; [15]): >20/>20 μg/mL
CC(C)[C@@H]1NC(=O)[C@@H](C(C)C)NC(=O)[C@@H](NC(=O)CC(O)CCCCCCCCCCCCN=C(N)N)[C@@H](C)OC(=O)[C@@H](C)NC(=O)[C@@H](CC(N)=O)NC(=O)[C@@H]([C@@H](C)O)NC1=O (stereo partly drawn) [Fusaricidin A (SQ-1-43 A)] ({Pentadecanoyl(3ξ-OH,15-Gua)}-T[dV]V[d(aThr)][dN][dA]; ester 1-C) |  |  |  |  |  |  |  | 0.5 µg/mL | 1.3 µg/mL | >20/>20 μg/mL | >20/>20 μg/mL | 2.3 µg/mL | 2.5 µg/mL | 5.1 µg/mL | 10.0 µg/mL | 3.6 µg/mL | 5.0 µg/mL | >20/>20 μg/mL | >20/>20 μg/mL | >20/>20 μg/mL | E. coli MIC (minimum inhibitory concentration) (Escherichia coli; [15]): >20/>20 μg/mL
CC(C)[C@@H]1NC(=O)[C@@H](C(C)C)NC(=O)[C@@H](NC(=O)CC(O)CCCCCCCCCCCCN=C(N)N)C(C)OC(=O)[C@@H](C)NC(=O)[C@@H](CCC(N)=O)NC(=O)[C@@H]([C@H](C)O)NC1=O (stereo partly drawn) [Fusaricidin B (SQ-1-43B)] ({Pentadecanoyl(3ξ-OH,15-Gua)}-[Thr(3ξ)][dV]V[dT][dQ][dA]; ester 1-C) |  |  |  |  |  |  |  | 1.1 µg/mL | 2.5 µg/mL | >20/>20 μg/mL | >20/>20 μg/mL | 4.2 µg/mL | 5.0 µg/mL | 9.1 µg/mL | 10.0 µg/mL | 8.7 µg/mL | 20.0 µg/mL | >20/>20 μg/mL | >20/>20 μg/mL | >20/>20 μg/mL | E. coli MIC (minimum inhibitory concentration) (Escherichia coli; [15]): >20/>20 μg/mL
Fusaricidin B |  |  |  |  |  |  |  |  |  |  |  |  |  |  |  |  |  |  |  |  | activity against MRSA (in words) [1]: strong activity; activity against VRE (in words) [2]: strong activity
